Test results published in ChEMBL document CHEMBL5113508, “Targeting Human CD22/Siglec-2 with Dimeric Sialosides as Novel Oligosaccharide Mimetics” (J Med Chem, 2022).

Legend:
[1] = target: B-cell receptor CD22 (Homo sapiens) (UniProt P20273); assay: Inhibition of hFc tagged CD22 (unknown origin) assessed as relative inhibitory potency incubated for 4 hrs by ELISA relative to 1,4-Bis-(2-aza-1-oxo-8-(sodium-(5-acetamido-3,5-dideoxy-D-glycero-alpha-D-galacto-non-2-ulopyranosyloxyonate))-5-thia-octyl)benzene
[2] = target: B-cell receptor CD22 (Homo sapiens) (UniProt P20273); assay: Antagonist activity at CD22 in IgM stimulated human Daudi cells assessed as increase in calcium flux incubated for 10 mins by flow cytometric analysis; type: cell-based; settings: dose 2-200 µM, DDE = dose-dependent effect
[3] = target: B-cell receptor CD22 (Homo sapiens) (UniProt P20273); assay: Inhibition of CD22 (unknown origin) in human Daudi cells assessed as relative inhibitory potency in presence of biotinylated dimeric 2-(78-biotinoylamino-1,4,7,10,13,16-hexaoxa-octadecyl)-1,4-bis(2-aza-l-oxo-8-(sodium(5-acetamido-3,5,9-trideoxy-9-(4-phenylbenzamido)-D-glycero-a-D-galacto-non-2-ulopyranosyloxyonate))-5-thia-octyl) benzene preincubated for 15 mins followed by probe addition incubated for 20 mins by flow cytometric analysis relative to 1,4-Bis-(2-aza-1-oxo-8-(sodium-(5-acetamido-3,5-dideoxy-D-glycero-alpha-D-galacto-non-2-ulopyranosyloxyonate))-5-thia-octyl)benzene; type: cell-based; settings: time 35.0 min
B-cell receptor CD22 [4] = target: T1, B-cell receptor CD22 (Homo sapiens, UniProt P20273); assay: Inhibition hFc tagged CD22 incubated for 4 hrs by ELISA
T1 sequence (P20273 whole entry): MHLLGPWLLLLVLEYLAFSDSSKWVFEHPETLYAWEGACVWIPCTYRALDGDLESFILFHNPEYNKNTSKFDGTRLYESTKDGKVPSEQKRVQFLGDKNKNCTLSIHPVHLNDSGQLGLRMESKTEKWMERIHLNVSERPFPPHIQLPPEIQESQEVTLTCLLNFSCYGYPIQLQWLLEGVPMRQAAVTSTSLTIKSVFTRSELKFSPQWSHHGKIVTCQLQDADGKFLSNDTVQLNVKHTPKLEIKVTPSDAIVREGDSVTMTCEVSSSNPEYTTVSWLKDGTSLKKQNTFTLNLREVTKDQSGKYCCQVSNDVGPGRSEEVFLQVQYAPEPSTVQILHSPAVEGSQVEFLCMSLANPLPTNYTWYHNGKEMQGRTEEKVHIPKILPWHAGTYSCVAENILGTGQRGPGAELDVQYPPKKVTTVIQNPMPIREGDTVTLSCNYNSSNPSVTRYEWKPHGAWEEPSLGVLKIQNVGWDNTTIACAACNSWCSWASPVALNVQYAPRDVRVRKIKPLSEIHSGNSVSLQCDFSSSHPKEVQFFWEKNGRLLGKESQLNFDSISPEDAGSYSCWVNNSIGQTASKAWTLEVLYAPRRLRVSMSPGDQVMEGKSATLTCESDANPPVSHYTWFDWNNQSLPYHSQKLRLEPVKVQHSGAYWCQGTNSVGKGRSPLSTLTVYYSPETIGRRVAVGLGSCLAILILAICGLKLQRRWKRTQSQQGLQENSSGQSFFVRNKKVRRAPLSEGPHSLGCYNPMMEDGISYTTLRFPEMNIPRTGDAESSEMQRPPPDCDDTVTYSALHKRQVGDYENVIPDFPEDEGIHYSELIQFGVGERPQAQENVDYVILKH

B-cell receptor CD22 [5] = target: T1, B-cell receptor CD22; assay: Inhibition of CD22 in human Daudi cells preincubated for 15 mins followed by biotinylated dimeric 2-(78-biotinoylamino-1,4,7,10,13,16-hexaoxa-octadecyl)-1,4-bis(2-aza-l-oxo-8-(sodium(5-acetamido-3,5,9-trideoxy-9-(4-phenylbenzamido)-D-glycero-a-D-galacto-non-2-ulopyranosyloxyonate))-5-thia-octyl) benzene probe addition incubated for 20 mins by flow cytometric analysis; type: cell-based

fold change (FC) [1]: 100
Activity [2]: Dde
fold change (FC) [3]: 2940
IC50 (B-cell receptor CD22 [4]): 0.41 nM
IC50 (B-cell receptor CD22 [5]): 2200 nM
Structure (SMILES): CC(=O)N[C@H]1[C@H]([C@H](O)[C@H](O)CNC(=O)c2ccc(-c3ccccc3)cc2)O[C@@](OCCCSCCNC(=O)c2ccc(C(=O)NCCSCCCO[C@]3(C(=O)O)C[C@H](O)[C@@H](NC(C)=O)[C@H]([C@H](O)[C@H](O)CNC(=O)c4ccc(-c5ccccc5)cc4)O3)cc2)(C(=O)O)C[C@@H]1O
